Experimental data as given in ChEMBL document CHEMBL5537127, “Design and synthesis of novel hederagonic acid analogs as potent anti-inflammatory compounds capable of protecting against LPS-induced acute lung injury” (Eur J Med Chem, 2024).
Values belong to the compound of their own block, whether it stands above or below them. The source made the active and inactive calls. The rule behind the calls is not given here.

Tests used:
[1] = Cytotoxicity against mouse RAW264.7 cells assessed as cell viability at 40 uM incubated for 24 hrs by MTT assay relative to control; type: toxicity, cell-based; conditions: read-out: Activity
Mus musculus [2] = test: Anti-inflammatory activity against LPS-stimulated BALB/c mouse assessed as decrease in IL-6 level in BALF administered for 3 days by Western blotting analysis; type: functional, organism-based; conditions: dose 1.25-5 mg/kg, route po, time 3.0 day
RAW264.7 [3] = test: Anti-inflammatory activity against LPS-induced mouse RAW264.7 cells assessed as decrease in TBK1 phosphorylation at 1.25 to 5 uM by Western blotting analysis; type: functional, cell-based; conditions: dose 1.25-5 µM
[4] = target: T1, Stimulator of interferon genes protein (Mus musculus) (UniProt Q3TBT3); test: Binding affinity to STING in mouse RAW264.7 cells assessed as protein stabilization at 49 degreeC incubated for 12 hrs by thermal shift assay; type: cell-based; conditions: dose 0.4-40 µM
T1 sequence (whole entry): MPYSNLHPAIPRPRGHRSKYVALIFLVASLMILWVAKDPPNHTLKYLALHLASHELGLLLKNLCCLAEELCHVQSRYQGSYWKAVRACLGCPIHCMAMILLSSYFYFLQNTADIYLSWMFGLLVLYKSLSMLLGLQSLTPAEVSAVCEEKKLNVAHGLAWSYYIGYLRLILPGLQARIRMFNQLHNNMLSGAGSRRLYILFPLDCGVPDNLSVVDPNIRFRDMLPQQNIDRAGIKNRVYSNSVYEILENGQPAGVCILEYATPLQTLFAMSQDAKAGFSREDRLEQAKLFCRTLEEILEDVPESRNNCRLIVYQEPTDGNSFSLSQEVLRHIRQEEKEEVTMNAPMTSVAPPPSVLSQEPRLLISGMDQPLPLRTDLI

RAW264.7 [5] = test: Anti-inflammatory activity against LPS-induced mouse RAW264.7 cells assessed as decrease in p65 phosphorylation at 1.25 to 5 uM by Western blotting analysis; type: functional, cell-based; conditions: dose 1.25-5 µM
RAW264.7 [6] = test: Anti-inflammatory activity against LPS-induced mouse RAW264.7 cells assessed as inhibition of NO production at 20 uM preincubated for 2 hrs followed by LPS addition and measured after 24 hrs by Griess reagent-based microplate reader analysis relative to control; type: functional; parameters: scale not given: the % may be the effect or the level left; conditions: time 26 hrs
Mus musculus [7] = test: Anti-inflammatory activity against LPS-stimulated BALB/c mouse acute lung injury model assessed as decrease in STING expression at 1.25 to 5 mg/kg, po administered for 3 days by Western blotting analysis; type: functional, organism-based; conditions: dose 1.25-5 mg/kg, time 3.0 day
[8] = target: T1, Stimulator of interferon genes protein (Mus musculus); test: Binding affinity to STING in mouse RAW264.7 cells assessed as reduction in protein degradation at 40 uM at 40 to 61 degreeC incubated for 12 hrs by thermal shift assay; type: cell-based
Mus musculus [9] = test: Anti-inflammatory activity against LPS-stimulated BALB/c mouse acute lung injury model assessed as decrease in IRF3 phosphorylation at 1.25 to 5 mg/kg, po administered for 3 days by Western blotting analysis; type: functional, organism-based; conditions: dose 1.25-5 mg/kg, time 3.0 day
Mus musculus [10] = test: Anti-inflammatory activity against LPS-stimulated BALB/c mouse acute lung injury model assessed as decrease in p65 phosphorylation at 1.25 to 5 mg/kg, po administered for 3 days by Western blotting analysis; type: functional, organism-based; conditions: dose 1.25-5 mg/kg, time 3.0 day
Mus musculus [11] = test: Anti-inflammatory activity against LPS-stimulated BALB/c mouse acute lung injury model assessed as decrease in pulmonary edema in lung tissue at 1.25 to 5 mg/kg, po administered for 3 days by hematoxylin and eosin staining based analysis; type: functional, organism-based; conditions: dose 1.25-5 mg/kg, time 3.0 day
RAW264.7 [12] = test: Anti-inflammatory activity against LPS-induced mouse RAW264.7 cells assessed as inhibition of NO production at 10 uM preincubated for 2 hrs followed by LPS addition and measured after 24 hrs by Griess reagent-based microplate reader analysis relative to control; type: functional; parameters: scale not given: the % may be the effect or the level left; conditions: time 26 hrs
RAW264.7 [13] = test: Anti-inflammatory activity against LPS-induced mouse RAW264.7 cells assessed as decrease in IL-6 expression at 1.25 to 5 uM preincubated for 2 hrs followed by LPS addition and measured after 12 hrs by ELISA; type: functional, cell-based; conditions: dose 1.25-5 µM, time 14.0 hrs
RAW264.7 [14] = test: Anti-inflammatory activity against LPS-induced mouse RAW264.7 cells assessed as decrease in IFN-beta expression at 1.25 to 5 uM preincubated for 2 hrs followed by LPS addition and measured after 12 hrs by ELISA; type: functional, cell-based; conditions: dose 1.25-5 µM, time 14.0 hrs
Mus musculus [15] = test: Anti-inflammatory activity against LPS-stimulated BALB/c mouse acute lung injury model assessed as decrease in TBK1 phosphorylation at 1.25 to 5 mg/kg, po administered for 3 days by Western blotting analysis; type: functional, organism-based; conditions: dose 1.25-5 mg/kg, time 3.0 day
Mus musculus [16] = test: Anti-inflammatory activity against LPS-stimulated BALB/c mouse acute lung injury model assessed as increase in SOD level in lung tissue at 1.25 to 5 mg/kg, po administered for 3 days by colorimetric method; type: functional, organism-based; conditions: dose 1.25-5 mg/kg, time 3.0 day
Mus musculus [17] = test: Anti-inflammatory activity against LPS-stimulated BALB/c mouse acute lung injury model assessed as decrease in MDA level in lung tissue at 1.25 to 5 mg/kg, po administered for 3 days by colorimetric method; type: functional, organism-based; conditions: dose 1.25-5 mg/kg, time 3.0 day
RAW264.7 [18] = test: Anti-inflammatory activity against LPS-induced mouse RAW264.7 cells assessed as decrease in IRF3 phosphorylation at 1.25 to 5 uM by Western blotting analysis; type: functional, cell-based; conditions: dose 1.25-5 µM
RAW264.7 [19] = test: Anti-inflammatory activity against LPS-induced mouse RAW264.7 cells assessed as decrease in TNF-alpha expression at 1.25 to 5 uM preincubated for 2 hrs followed by LPS addition and measured after 12 hrs by ELISA; type: functional, cell-based; conditions: dose 1.25-5 µM, time 14.0 hrs
RAW264.7 [20] = test: Anti-inflammatory activity against LPS-induced mouse RAW264.7 cells assessed as decrease in STING protein level at 1.25 to 5 uM by Western blotting analysis; type: functional, cell-based; conditions: dose 1.25-5 µM
RAW264.7 [21] = test: Anti-inflammatory activity against LPS-induced mouse RAW264.7 cells assessed as inhibition of IRF3 nuclear translocation at 5 uM preincubated for 2 hrs followed by LPS addition and measured after 2 hrs by FITC/DAPI staining based laser confocal microscopy analysis; type: functional, cell-based; conditions: time 4.0 hrs
RAW264.7 [22] = test: Anti-inflammatory activity against LPS-induced mouse RAW264.7 cells assessed as decrease in IkappaB phosphorylation at 1.25 to 5 uM by Western blotting analysis; type: functional, cell-based; conditions: dose 1.25-5 µM
Mus musculus [23] = test: Anti-inflammatory activity against LPS-stimulated BALB/c mouse assessed as decrease in TNF-alpha level in BALF administered for 3 days by Western blotting analysis; type: functional, organism-based; conditions: dose 1.25-5 mg/kg, route po, time 3.0 day
RAW264.7 [24] = test: Anti-inflammatory activity against LPS-induced mouse RAW264.7 cells assessed as inhibition of p65 nuclear translocation at 5 uM preincubated for 2 hrs followed by LPS addition and measured after 2 hrs by FITC/DAPI staining based laser confocal microscopy analysis; type: functional, cell-based; conditions: time 4.0 hrs
[25] = target: T1, Stimulator of interferon genes protein (Mus musculus); test: Binding affinity to STING in mouse RAW264.7 cells assessed as inhibition of protein degradation at 4 to 40 uM at 49 degreeC incubated for 12 hrs by thermal shift assay; type: cell-based; conditions: dose 4-40 µM
Mus musculus [26] = test: Anti-inflammatory activity against LPS-stimulated BALB/c mouse assessed as decrease in IFN-beta level in BALF administered for 3 days by Western blotting analysis; type: functional, organism-based; conditions: dose 1.25-5 mg/kg, route po, time 3.0 day
Mus musculus [27] = test: Anti-inflammatory activity against LPS-stimulated BALB/c mouse acute lung injury model assessed as decrease in IkappaB phosphorylation at 1.25 to 5 mg/kg, po administered for 3 days by Western blotting analysis; type: functional, organism-based; conditions: dose 1.25-5 mg/kg, time 3.0 day
RAW264.7 [28] = test: Anti-inflammatory activity against LPS-induced mouse RAW264.7 cells assessed as inhibition of IRF3 nuclear translocation preincubated for 2 hrs followed by LPS addition and measured after 2 hrs by FITC/DAPI staining based laser confocal microscopy analysis; type: functional, cell-based; conditions: time 4.0 hrs
RAW264.7 [29] = test: Anti-inflammatory activity against LPS-induced mouse RAW264.7 cells assessed as decrease in IRF3 phosphorylation at 1 uM by Western blotting analysis; type: functional, cell-based
Mus musculus [30] = test: Anti-inflammatory activity against LPS-stimulated BALB/c mouse acute lung injury model assessed as decrease in IRF3 phosphorylation at 2.5 mg/kg, po administered for 3 days by Western blotting analysis; type: functional, organism-based; conditions: time 3.0 day
RAW264.7 [31] = test: Anti-inflammatory activity against LPS-induced mouse RAW264.7 cells assessed as inhibition of p65 nuclear translocation preincubated for 2 hrs followed by LPS addition and measured after 2 hrs by FITC/DAPI staining based laser confocal microscopy analysis; type: functional, cell-based; conditions: time 4.0 hrs
RAW264.7 [32] = test: Anti-inflammatory activity against LPS-induced mouse RAW264.7 cells assessed as decrease in STING protein level at 1 uM by Western blotting analysis; type: functional, cell-based
Mus musculus [33] = test: Anti-inflammatory activity against LPS-stimulated BALB/c mouse acute lung injury model assessed as decrease in STING expression at 2.5 mg/kg, po administered for 3 days by Western blotting analysis; type: functional, organism-based; conditions: time 3.0 day
RAW264.7 [34] = test: Anti-inflammatory activity against LPS-induced mouse RAW264.7 cells assessed as decrease in IFN-beta expression preincubated for 2 hrs followed by LPS addition and measured after 12 hrs by ELISA; type: functional, cell-based; conditions: time 14.0 hrs
RAW264.7 [35] = test: Anti-inflammatory activity against LPS-induced mouse RAW264.7 cells assessed as decrease in p65 phosphorylation at 1 uM by Western blotting analysis; type: functional, cell-based
RAW264.7 [36] = test: Anti-inflammatory activity against LPS-induced mouse RAW264.7 cells assessed as decrease in TBK1 phosphorylation at 1 uM by Western blotting analysis; type: functional, cell-based
RAW264.7 [37] = test: Anti-inflammatory activity against LPS-induced mouse RAW264.7 cells assessed as decrease in TNF-alpha expression preincubated for 2 hrs followed by LPS addition and measured after 12 hrs by ELISA; type: functional, cell-based; conditions: time 14.0 hrs
RAW264.7 [38] = test: Anti-inflammatory activity against LPS-induced mouse RAW264.7 cells assessed as decrease in IL-6 expression preincubated for 2 hrs followed by LPS addition and measured after 12 hrs by ELISA; type: functional, cell-based; conditions: time 14.0 hrs
RAW264.7 [39] = test: Anti-inflammatory activity against LPS-induced mouse RAW264.7 cells assessed as decrease in IkappaB phosphorylation at 1 uM by Western blotting analysis; type: functional, cell-based
Mus musculus [40] = test: Anti-inflammatory activity against LPS-stimulated BALB/c mouse acute lung injury model assessed as decrease in p65 phosphorylation at 2.5 mg/kg, po administered for 3 days by Western blotting analysis; type: functional, organism-based; conditions: time 3.0 day
Mus musculus [41] = test: Anti-inflammatory activity against LPS-stimulated BALB/c mouse acute lung injury model assessed as decrease in TBK1 phosphorylation at 2.5 mg/kg, po administered for 3 days by Western blotting analysis; type: functional, organism-based; conditions: time 3.0 day
Mus musculus [42] = test: Anti-inflammatory activity against LPS-stimulated BALB/c mouse acute lung injury model assessed as decrease in IkappaB phosphorylation at 2.5 mg/kg, po administered for 3 days by Western blotting analysis; type: functional, organism-based; conditions: time 3.0 day

- Activity [4]: Dose-Dependent Effect
- Activity [8]: Active
- Activity [25]: Active
SMILES: CC1(C)CC[C@]2(C(=O)OCc3ccccc3)CC[C@]3(C)C(=CC[C@@H]4[C@@]5(C)CCC(=O)[C@@](C)(COC(=O)CCCNC(=O)CCCC[C@@H]6CCSS6)[C@@H]5CC[C@]43C)[C@@H]2C1
- viability at 24 h, 40 µM [1]: 100%
- Activity (Mus musculus [2]): Dose-Dependent Effect
- Activity (RAW264.7 [3]): Active
- Activity (RAW264.7 [5]): Active
- Activity (RAW264.7 [6]): 81.7%
- Activity (Mus musculus [7]): Active
- Activity (Mus musculus [9]): Active
- Activity (Mus musculus [10]): Active
- Activity (Mus musculus [11]): Active
- Activity (RAW264.7 [12]): 69.78%
- Activity (RAW264.7 [13]): Active
- Activity (RAW264.7 [14]): Active
- Activity (Mus musculus [15]): Active
- Activity (Mus musculus [16]): Active
- Activity (Mus musculus [17]): Active
- Activity (RAW264.7 [18]): Active
- Activity (RAW264.7 [19]): Active
- Activity (RAW264.7 [20]): Active
- Activity (RAW264.7 [21]): Active
- Activity (RAW264.7 [22]): Active
- Activity (Mus musculus [23]): Dose-Dependent Effect
- Activity (RAW264.7 [24]): Active
- Activity (Mus musculus [26]): Dose-Dependent Effect
- Activity (Mus musculus [27]): Active

SMILES: O=C(Nc1ccc(I)cc1)c1ccc([N+](=O)[O-])o1
- Activity (RAW264.7 [28]): Active
- Activity (RAW264.7 [29]): Active
- Activity (Mus musculus [30]): Active
- Activity (RAW264.7 [31]): Active
- Activity (RAW264.7 [32]): Active
- Activity (Mus musculus [33]): Active
- Activity (RAW264.7 [34]): Active
- Activity (RAW264.7 [35]): Active
- Activity (RAW264.7 [36]): Active
- Activity (RAW264.7 [37]): Active
- Activity (RAW264.7 [38]): Active
- Activity (RAW264.7 [39]): Active
- Activity (Mus musculus [40]): Active
- Activity (Mus musculus [41]): Active
- Activity (Mus musculus [42]): Active
